Data from patent US7091185B2, “Periodic antimicrobial peptides” (Dow Global Technologies Inc., priority 2003, dated 2006).
Where no end group is shown, it is not given here.

B1: KFAK KFAK KFAK KFAK KFAK KFAK KFAK KFAK KFAK KFAK KFAK KFAK KFAK KFAK KFAK KFAK KFAK (peptide)
chain: KFAKKFAKKFAKKFAKKFAKKFAKKFAKKFAKKFAKKFAKKFAKKFAKKFAKKFAKKFAKKFAKKFAK
modifications: Periodic Peptide
B2: KFK KFK KFK KFK KFK KFK KFK KFK KFK KFK KFK KFK KFK KFK KFK KFK KFK KFK KFK KFK KFK (peptide)
chain: KFKKFKKFKKFKKFKKFKKFKKFKKFKKFKKFKKFKKFKKFKKFKKFKKFKKFKKFKKFKKFK
modifications: Periodic Peptide
B3: FKA FKA FKA FKA FKA FKA FKA FKA FKA FKA FKA FKA FKA FKA FKA FKA FKA FKA FKA FKA FKA (peptide)
chain: FKAFKAFKAFKAFKAFKAFKAFKAFKAFKAFKAFKAFKAFKAFKAFKAFKAFKAFKAFKAFKA
modifications: Periodic Peptide

What was measured:
P. aeruginosa ATCC 15442 = assay: HMARQ biocidal kill activity; format: cell-based; settings: P. aeruginosa ATCC 15442 (gram−)
Method: (§1) Biocide efficacy protocols were improved by reducing sample size, organizing the test material into an array format, implementing most probable number (MPN) quantitation and using multi-channel liquid handling equipment. We call the new method “high-throughput microanalysis and rapid quantitation” or “HMARQ.” HMARQ is directly applicable to current industrial efficacy tests such as multi-cycle preservation challenge or time course disinfection tests.
(§2) HMARQ is performed in a high throughput plate, such as 96-well microtiter plates. Typical sample volumes have been reduced down to 200 to 300 μL, but can be reduced further if desired. In these samples, no more than 10% of the total volume will be composed of the biocide and organism solution, and all non-matrix additions are normalized for all samples.
(§3) The sample matrix is first inoculated with the desired concentration of microorganisms. Inoculated sample matrix is then added to the 96-well assay block containing the biocide(s) under study. Each sample block contains biocide treated samples and untreated control samples (lacking biocide). Once the samples are prepared, the entire block of samples is mixed by vortexing until each sample is homogenous. In general, the study starts once mixing is complete, and samples are removed as required for the analysis. When Kill Time testing (rate of biocide activity) is performed, the microorganisms are added after biocide addition to the samples, allowing for rapid mixing and analysis.
(§4) Bacterial concentration (CFU/mL) is determined using the most probable number method (MPN). The contaminated solution is serially diluted until the “no growth” endpoint is reached. The endpoint represents the MPN and is expressed in units of the bacterial concentration. A serial 1:10 dilution will yield a bacterial concentration resolution of 1 log and the log reduction is determined by comparing the concentration of organisms in a treated sample to the concentration of organisms in untreated samples. For example, if a sample requires four 1:10 dilutions before bacterial growth is lost then the MPN for bacterial concentration in the sample is less than or equal to 1×10^4 CFU/mL (1E4). […] This method of enumeration is generally applicable to all non-filamentous microorganisms.
(§5) Media included Tryptic Soy Broth (TSB) for bacteria and Sabouraud Dextrose Broth (SDB) for fungi. These are available commercially and prepared according to the manufacturers instructions. Indicator medium was TSB/R for bacteria and SDB/R for fungi. These were made by addition of 50 μM filter sterilized Resazurin to the sterilized and cooled medium. Tryptic Soy agar plates (TSA) and SDA slants were used to provide inoculant for bacterial and fungal cultures. The indicator dye appeared pink or white when bacterial growth was present.
(§6) Using the HMARQ test described above, periodic peptides were generated and tested for Kill Activity. In this experiment, a broader range of peptidezs were tested for activity. Units are expressed as ppm (μg/mL) needed for 3.5 log kill at 15 min or 24 hour and the results are shown below.

Staph. aureus ATCC 6538 = assay: HMARQ biocidal kill activity; format: cell-based; settings: Staph. aureus ATCC 6538 (gram+)
Method: as §1, §2, §3, §4, §5, §6

P. aeruginosa ATCC 10145 = settings: ATCC 10145
Method: The bacteria tested were P. aeruginosa American Type Culture Collection Number (ATCC) 10145, E. coli ATCC 2592, and S. aureus (methicillin reseistant) ATTC 33591.
All experiments were compared to bacterial growth under optimal growth conditions (37° C., pH 7.0, absence of additional salt, growth media—referred to as standard growth conditions). In each plate, no growth control (media alone), positive growth control (bacteria with no test sample), positive antimicrobial controls (agents with known antimicrobial activity) and test compounds were tested.
The plates were incubated overnight, and the relative percent growth determined by optical density at 620 nm (OD620) using a […] […] PLUS™. […] All samples were tested in duplicate and each assay was repeated at least twice. […] IC50 and MIC are reported in μg/ml.

Row | Molecule | ppm needed for 3.5 log kill at 15 min (P. aeruginosa ATCC 15442) [ppm] | ppm needed for 3.5 log kill at 24 hr (P. aeruginosa ATCC 15442) [ppm] | ppm needed for 3.5 log kill at 15 min (Staph. aureus ATCC 6538) [ppm] | ppm needed for 3.5 log kill at 24 hr (Staph. aureus ATCC 6538) [ppm] | IC50 (P. aeruginosa ATCC 10145) [µg/mL] | MIC (P. aeruginosa ATCC 10145) [µg/mL]
1 | FKA FKA FKA FKA FKA FKA FKA FKA FKA FKA FKA FKA FKA FKA FKA FKA FKA (FKAFKAFKAFKAFKAFKAFKAFKAFKAFKAFKAFKAFKAFKAFKAFKAFKA; Periodic Peptide) [FKA(17)] | 16 | 16 | 4 | 8 |  | 
2 | H-KFAKKFAKKAAKKAAK-OH [PBF16b, KFAKKFAKKAAKKAAK, reference compound] |  |  |  |  | >250 | >250
3 | H-KFAKKFAKKFAKKAAK-OH [PBF16a, KFAKKFAKKFAKKAAK, reference compound] |  |  |  |  | >250 | >250
4 | KFAKKAAKKFAKKAAK [PBF16c, KFAKKAAKKFAKKAAK, reference compound] |  |  |  |  | >250 | >250
5 | KFK KFK KFK KFK KFK KFK KFK KFK KFK KFK KFK KFK (KFKKFKKFKKFKKFKKFKKFKKFKKFKKFKKFKKFK; Periodic Peptide) [KFK(12)] | 4 | 8 | >500 | 250 |  | 
6 | KFK KFK KFK KFK KFK KFK KFK KFK KFK KFK KFK KFK KFK KFK KFK KFK (KFKKFKKFKKFKKFKKFKKFKKFKKFKKFKKFKKFKKFKKFKKFKKFK; Periodic Peptide) [KFK(16)] | 16 | 31 | >500 | 16 |  | 
7 | KGK KGK KGK KGK KGK KGK KGK KGK KGK KGK KGK (KGKKGKKGKKGKKGKKGKKGKKGKKGKKGKKGK; Periodic Peptide) [KGK(11)] | 8 | 8 | >500 | 8 |  | 
8 | KGK KGK KGK KGK KGK KGK KGK KGK KGK KGK KGK KGK KGK KGK KGK (KGKKGKKGKKGKKGKKGKKGKKGKKGKKGKKGKKGKKGKKGKKGK; Periodic Peptide) [KGK(15)] | 4 | 16 | 125 | 62 |  | 
9 | KTK KTK KTK KTK KTK KTK KTK (KTKKTKKTKKTKKTKKTKKTK; Periodic Peptide) [KTK(7)] | 31 | 31 | 250 | 8 |  | 
10 | LK LK LK LK LK (LKLKLKLKLK; Periodic Peptide) [LK(5)] | 62 | 62 | >500 | 31 |  | 
11 | LK LK LK LK LK LK LK LK LK LK LK LK LK LK LK LK LK LK (LKLKLKLKLKLKLKLKLKLKLKLKLKLKLKLKLKLK; Periodic Peptide) [LK(18)] | 16 | 31 | 8 | 16 |  | 
12 | LK LK LK LK LK LK LK LK LK LK LK LK LK LK LK LK LK LK LK LK LK LK LK LK (LKLKLKLKLKLKLKLKLKLKLKLKLKLKLKLKLKLKLKLKLKLKLKLK; Periodic Peptide) [LK(24)] | 16 | 63 | >500 | >500 |  | 
13 | B1 | 16 | 250 | 250 | 500 |  | 
14 | B2 | 31 | 63 | >500 | 250 |  | 
15 | B3 | 8 | 16 | 4 | 125 |  | 
